The term IC50 denotes the concentration that inhibits the measured activity by half.

Results on 13 compounds are retold here after patent publication US20060183784A1, “Human growth hormone antagonists” (Genentech, Inc., priority 2001, published 2006).

The assay addresses binding of biotinylated human growth hormone (b-hGH) to the extracellular domain of its receptor (Homo sapiens, UniProt P01241). Put plainly: ELISA of binding of biotinylated human growth hormone (b-hGH) to the extracellular domain of its receptor. Particulars: inhibition of b-hGH (about 1.5 nM) binding to receptor-coated plates; compounds re-tested at multiple concentrations. The procedure: A collection of heterocyclic aromatic compounds (384 total; 1 mmol each) was obtained from Aldrich Chemical Company or prepared as described in Holan et al., J. Chem Soc. C, 20-25 (1967)) incorporated herein by reference. Each compound was dissolved in dimethyl sulfoxide (DMSO) to yield a 100-mM solution and arrayed in 96-well polypropylene deep-well plates (Beckman). Dilutions (10-fold in DMSO) were prepared from the parent plates; these 10-mM stocks were then diluted 50-fold in the screening assay as described below (200 μM final concentration; 2% DMSO).
Human growth hormone (100 μM) in phosphate-buffered saline (PBS) was treated with 2 molar equivalents of EZ-Link Sulfo-NHS-LC-biotin™ (Pierce 21335™) according to the manufacturer's instructions. Binding of the biotinylated human growth hormone (b-hGH) to the extracellular domain of its receptor was assayed in an ELISA format. Briefly, Nunc Maxi-Sorb™ 96-well plates were treated with a solution of the receptor (2 μg/mL) in phosphate-buffered saline (PBS) overnight at 4° C. Plates were then blocked with a 0.2% solution of bovine serum albumin (BSA; Sigma A-7638) in PBS for 2 hours at room temperature. An appropriate dilution of b-hGH (generally about 1.5 nM final concentration in PBS containing 0.05% Tween-20 T detergent) was added to polypropylene plates containing aliquots of the screening collection (147 μL b-hGH to 3 μL compound in DMSO) or DMSO alone, and the mixtures were allowed to equilibrate at room temperature for approximately 45 min. These mixtures were then transferred to the receptor-coated plates and allowed to stand for 15 min. Plates were washed (10 times) with PBS/Tween-20™. Streptavidin-HRP conjugate (Zymed Laboratories 43-4323™) followed by TMB peroxidase reagent (Kirkegaard & Perry Laboratories 50-76-03™) was used to detect bound b-hGH. Several potential inhibitor compounds were re-tested at multiple concentrations. Table 1 below provides IC50 of the compounds tested.
For orientation: In an ELISA, binding on a coated surface is turned into a signal by an enzyme label.

Sequence of binding of biotinylated human growth hormone (b-hGH) to the extracellular domain of its receptor (P01241 27-217): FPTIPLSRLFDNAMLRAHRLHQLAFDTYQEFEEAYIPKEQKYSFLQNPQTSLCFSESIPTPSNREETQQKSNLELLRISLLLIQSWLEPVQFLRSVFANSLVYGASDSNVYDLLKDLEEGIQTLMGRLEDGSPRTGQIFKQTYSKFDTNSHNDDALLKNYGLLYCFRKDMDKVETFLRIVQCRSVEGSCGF

Regarding `Clc1ccc2nc(C(Cl)(Cl)Cl)[nH]c2c1` [(i)], the half-inhibitory concentration (IC50) amounted to 77 µM.

For `ClC(Cl)(Cl)c1nc2ccccc2[nH]1` [(ii)], the IC50 came to 170 µM. With `Cn1c(C(Cl)(Cl)Cl)nc2ccccc21` [(iii)] the figure was 150 µM.

Regarding `Cc1ccc2[nH]c(C(Cl)(Cl)Cl)nc2c1` [(iv)], the IC50 amounted to 98 µM. With `ClC(Cl)(Cl)c1nc2ccccc2o1` [(ix)] the figure was over 1000 µM; with `Clc1cc2nc(C(Cl)(Cl)Cl)[nH]c2cc1Cl` [(v)], 51 µM; with `FC(F)(F)c1nc2cc(Cl)ccc2[nH]1` [(vi)], over 1000 µM. Take `Clc1ccc2[nH]cnc2c1` [(vii)]: the IC50 was over 1000 µM. With `Cc1nc2cc(Cl)ccc2[nH]1` [(viii)] the figure was over 1000 µM; with `ClC(Cl)(Cl)c1nc2ccccc2s1` [(x)], over 1000 µM; with `Cc1nc2ccccc2[nH]1` [(xi)], over 1000 µM. With `c1ccc2[nH]c(-c3cscn3)nc2c1` [(xii)] the figure was over 1000 µM. With `Cc1ccc2[nH]cnc2c1` [(xiii)] the figure was over 1000 µM.
